Source: patent US6472213B1, “Shuttle vectors for the introduction of DNA into mycobacteria and utilization of such bacteria as vaccines” (Institut National de la Sante et de la Recherche Medicale …, priority 1994, dated 2002)

Experiments:
[1] = system: mycobacteria carrying the plasmid pMR001; format: cell-based, M. smegmatis, M. bovis BCG, M. tuberculosis
[2] = system: non-transformed control mycobacteria; format: cell-based, M. smegmatis, M. bovis BCG, M. tuberculosis
[3] = system: pVN2-carrying mycobacteria; format: cell-based, M. smegmatis, M. bovis BCG, M. tuberculosis
[4] = system: Mycobacterium smegmatis carrying plasmid pVN3; experiment: Resistance to arsenic conferred by plasmid pVN3; format: cell-based; details: pVN3 in Mycobacterium smegmatis

| Molecule | MIC Liquid medium [1] [µg/mL] | MIC Solid medium [1] [µg/mL] | concentration at which still capable of growing [1] [µg/mL] | concentration of complete inhibition of bacterial growth [1] [µg/mL] | MIC Liquid medium [2] [µg/mL] | MIC Solid medium [2] [µg/mL] | concentration at which considerable susceptibility is shown [2] [µg/mL] | concentration of complete inhibition of bacterial growth (MIC) [2] [µg/mL] | MIC Liquid medium [3] [µg/mL] | MIC Solid medium [3] [µg/mL] | concentration up to which growth occurs [3] [µg/mL] | resistance level [4] [mg/L] |
| --- | --- | --- | --- | --- | --- | --- | --- | --- | --- | --- | --- | --- |
| [Cl][Hg][Cl] [HgCl2] | 40 | 160 | 20 | 160 | 1.25 | 0.15 | 0.15 | 1 | 40 | 160 | ≤ 40 | – |
| arsenic nitrate [AsNO3] | – | – | – | – | – | – | – | – | – | – | – | ~10 |
